Reference: patent US9884832B2 (priority 2011, dated 2018)
Like-named read-outs stand apart in the source and are kept apart here.

How the values were obtained:
[1] = target: AM2 V27A (valine→alanine mutation at residue 27 in the M2 protein) (Influenza A virus, UniProt P0DOF5, V27A); type: cell-based, influenza virus A/Udorn/72
[2] = target: AM2 S31N (serine→asparagine mutation at residue 31 in the M2 protein) (Influenza A virus, UniProt P0DOF5, S31N); type: cell-based, influenza virus A/Udorn/72

SMILES | V27A OOcyte Inhibition at 100 uM (%) [1] | S31N OOcyte Inhibition at 100 uM (%) [2] | V27A OOcyte Inhibition at 100 uM (%) ([1]; pH 5.5) | S31N OOcyte Inhibition at 100 uM (%) ([2]; pH 5.5)
c1scc2[nH]c(CNC34CC5CC(CC(C5)C3)C4)nc12 [Example 171a, Adamantan-1-yl-(1H-thieno[3,4-d]imidazol-2-ylmethyl)-amine] | B (key: (A)=31-95%; (B)=0-30%) | A (key: (A)=31-95%; (B)=0-30%) | – | –
c1cc2cc(CNC34CC5CC(CC(C5)C3)C4)ccc2s1 [Example 41a, N-(benzo[b]thiophen-5-ylmethyl)adamantan-1-amine] | A (key: (A)=31-95%; (B)=0-30%) | B (key: (A)=31-95%; (B)=0-30%) | – | –
CC(=O)Oc1ccc(CNC23CC4CC(CC(C4)C2)C3)c(O)c1 [Example 60, Acetic acid 4-(adamantan-1-ylaminomethyl)-3-hydroxy-phenyl ester] | – | – | B (key: (A)=31-95%; (B)=0-30%) | A (key: (A)=31-95%; (B)=0-30%)
Nc1ccc(CNC23CC4CC(CC(C4)C2)C3)cc1 [Example 11, Adamantan-1-yl-(4-amino-benzyl)-amine] | – | – | B (key: (A)=31-95%; (B)=0-30%) | B (key: (A)=31-95%; (B)=0-30%)
COc1cccc(COc2ccc(CNC34CC5CC(CC(C5)C3)C4)cc2)c1 [Example 14a, Adamantan-1-yl-[4-(3-methoxy-benzyloxy)-benzyl]-amine] | B (key: (A)=31-95%; (B)=0-30%) | A (key: (A)=31-95%; (B)=0-30%) | – | –
O=C1CCCN1c1ccc(CNC23CC4CC(CC(C4)C2)C3)cc1 [Example 45a, 1-(4-((adamantan-1-ylamino)methyl)phenyl)pyrrolidin-2-one] | B (key: (A)=31-95%; (B)=0-30%) | A (key: (A)=31-95%; (B)=0-30%) | – | –
Cc1csc2sc(CNC34CC5CC(CC(C5)C3)C4)c(C)c12 [Example 176a] | B (key: (A)=31-95%; (B)=0-30%) | B (key: (A)=31-95%; (B)=0-30%) | – | –
c1coc(-c2ncc(CNC34CC5CC(CC(C5)C3)C4)cn2)c1 [Example 62a, N-((2-(furan-2-yl)pyrimidin-5-yl)methyl)adamantan-1-amine] | B (key: (A)=31-95%; (B)=0-30%) | A (key: (A)=31-95%; (B)=0-30%) | – | –
CSc1ccc(-c2ccc(CNC34CC5CC(CC(C5)C3)C4)s2)cc1 [Example 112a, N-((5-(4-(methylthio)phenyl)thiophen-2-yl)methyl)adamantan-1-amine] | B (key: (A)=31-95%; (B)=0-30%) | A (key: (A)=31-95%; (B)=0-30%) | – | –
[O-][S+]1Cc2cc(CNC34CC5CC(CC(C5)C3)C4)sc2C1 (stereo not shown) [Example 85, Adamantan-1-yl-(5-oxo-5,6-dihydro-4H-5M-thieno[3,4-b]thiophen-2-ylmethyl)-amine] | – | – | B (key: (A)=31-95%; (B)=0-30%) | B (key: (A)=31-95%; (B)=0-30%)
O=[N+]([O-])c1ccc(CNC23CC4CC(CC(C4)C2)C3)s1 [Example 100a, N-((5-nitrothiophen-2-yl)methyl)adamantan-1-amine] | A (key: (A)=31-95%; (B)=0-30%) | B (key: (A)=31-95%; (B)=0-30%) | – | –
Cc1nc(CNC23CC4CC(CC(C4)C2)C3)c[nH]1 [Example 99a, N-((2-methyl-1H-imidazol-4-yl)methyl)adamantan-1-amine] | B (key: (A)=31-95%; (B)=0-30%) | B (key: (A)=31-95%; (B)=0-30%) | – | –
Cc1noc(C)c1-c1ccc(CNC23CC4CC(CC(C4)C2)C3)cc1 [Example 33a, N-(4-(3,5-Dimethylisoxazol-4-yl)benzyl)adamantan-1-amine] | B (key: (A)=31-95%; (B)=0-30%) | B (key: (A)=31-95%; (B)=0-30%) | – | –
COc1ccc(CNC23CC4CC(CC(C4)C2)C3)c(OC)c1 [Example 59, Adamantan-1-yl-(2,4-dimethoxy-benzyl)-amine] | – | – | B (key: (A)=31-95%; (B)=0-30%) | B (key: (A)=31-95%; (B)=0-30%)
NCc1ccc(CNC23CC4CC(CC(C4)C2)C3)cc1 [Example 13, Adamantan-1-yl-(4-aminomethyl-benzyl)-amine] | – | – | A (key: (A)=31-95%; (B)=0-30%) | B (key: (A)=31-95%; (B)=0-30%)
c1cc(CNC23CC4CC(CC(C4)C2)C3)c2cc[nH]c2c1 [Example 96, Adamantan-1-yl-(1H-indol-4-ylmethyl)-amine] | – | – | A (key: (A)=31-95%; (B)=0-30%) | B (key: (A)=31-95%; (B)=0-30%)
c1ncc(CCNCC23CC4CC(CC(C4)C2)C3)[nH]1 [Example 1, Adamantan-1-ylmethyl-[2-(3H-imidazol-4-yl)-ethyl]-amine] | – | – | B (key: (A)=31-95%; (B)=0-30%) | B (key: (A)=31-95%; (B)=0-30%)
Cn1cc(C(F)(F)F)c(-c2ccc(CNC34CC5CC(CC(C5)C3)C4)s2)n1 [Example 155a, N-((5-(1-methyl-4-(trifluoromethyl)-1H-pyrazol-3-yl)thiophen-2-yl)methyl)adamantan-1-amine] | B (key: (A)=31-95%; (B)=0-30%) | B (key: (A)=31-95%; (B)=0-30%) | – | –

SMILES | V27A OOcyte Inhibition at 100 uM (%) [1] | S31N OOcyte Inhibition at 100 uM (%) [2] | V27A OOcyte Inhibition at 100 uM (%) ([1]; pH 5.5) | S31N OOcyte Inhibition at 100 uM (%) ([2]; pH 5.5)
OC1CCC(CNC23CC4CC(CC(C4)C2)C3)CC1 (stereo not shown) [Example 170a, 4-(Adamantan-1-ylaminomethyl)-cyclohexanol] | B (key: (A)=31-95%; (B)=0-30%) | B (key: (A)=31-95%; (B)=0-30%) | – | –
c1ccc(CNC23CC4CC(CC(C4)C2)C3)cc1 [Example 8, Adamantan-1-yl-benzyl-amine] | – | – | B (key: (A)=31-95%; (B)=0-30%) | B (key: (A)=31-95%; (B)=0-30%)
Oc1cc(OCc2ccccc2)ccc1CNC12CC3CC(CC(C3)C1)C2 [Example 37a, 2-(Adamantan-1-ylaminomethyl)-5-benzyloxy-phenol] | B (key: (A)=31-95%; (B)=0-30%) | A (key: (A)=31-95%; (B)=0-30%) | – | –
c1c(CNC2C3CC4CC(C3)CC2C4)nc2n1CCS2 (stereo not shown) [Example 105, Adamantan-2-yl-(2,3-dihydro-imidazo[2,1-b]thiazol-6-ylmethyl)-amine] | – | – | B (key: (A)=31-95%; (B)=0-30%) | B (key: (A)=31-95%; (B)=0-30%)
Oc1ccc(CNC23CC4CC(CC(C4)C2)C3)c(O)c1O [Example 65, 4-(Adamantan-1-ylaminomethyl)-benzene-1,2,3-triol] | – | – | A (key: (A)=31-95%; (B)=0-30%) | B (key: (A)=31-95%; (B)=0-30%)
c1coc(COc2ccc(CNC34CC5CC(CC(C5)C3)C4)cc2)c1 [Example 21, Adamantan-1-yl-[4-(furan-2-ylmethoxy)-benzyl]-amine] | – | – | A (key: (A)=31-95%; (B)=0-30%) | A (key: (A)=31-95%; (B)=0-30%)
O=[N+]([O-])c1ccccc1CNC12CC3CC(CC(C3)C1)C2 [Example 30, Adamantan-1-yl-(2-nitro-benzyl)-amine] | – | – | B (key: (A)=31-95%; (B)=0-30%) | B (key: (A)=31-95%; (B)=0-30%)
Oc1cc(-c2ccccc2)ccc1CNC12CC3CC(CC(C3)C1)C2 [Example 47a, 4-(Adamantan-1-ylaminomethyl)-biphenyl-3-ol] | B (key: (A)=31-95%; (B)=0-30%) | A (key: (A)=31-95%; (B)=0-30%) | – | –
COc1ccc(-c2ccc(CNC34CC5CC(CC(C5)C3)C4)s2)cc1 [Example 113a, N-((5-(4-methoxyphenyl)thiophen-2-yl)methyl)adamantan-1-amine] | B (key: (A)=31-95%; (B)=0-30%) | A (key: (A)=31-95%; (B)=0-30%) | – | –
c1ccc(CNC23CC4CC(CC(C4)C2)C3)nc1 [Example 72, Adamantan-1-yl-pyridin-2-ylmethyl-amine] | – | – | B (key: (A)=31-95%; (B)=0-30%) | B (key: (A)=31-95%; (B)=0-30%)
c1cc2cc(CNC34CC5CC(CC(C5)C3)C4)sc2s1 [Example 79, Adamantan-1-yl-thieno[2,3-b]thiophen-2-ylmethyl-amine] | – | – | B (key: (A)=31-95%; (B)=0-30%) | A (key: (A)=31-95%; (B)=0-30%)
CCSc1ccc(CNC23CC4CC(CC(C4)C2)C3)cc1 [Example 12a, N-(4-(ethylthio)benzyl)adamantan-1-amine] | B (key: (A)=31-95%; (B)=0-30%) | A (key: (A)=31-95%; (B)=0-30%) | – | –
N=C(Nc1ccc(O)cc1)C12CC3CC(CC(C3)C1)C2 [Example 5] | – | – | B (key: (A)=31-95%; (B)=0-30%) | B (key: (A)=31-95%; (B)=0-30%)
COc1ccc(C(C)NC23CC4CC(CC(C4)C2)C3)cc1 (stereo not shown) [Example 11a, N-(1-(4-methoxyphenyl)ethyl)adamantan-1-amine] | A (key: (A)=31-95%; (B)=0-30%) | A (key: (A)=31-95%; (B)=0-30%) | – | –
c1csc(CNC23CC4CC(CC(C4)C2)C3)n1 [Example 71a, Adamantan-1-yl-thiazol-2-ylmethyl-amine] | B (key: (A)=31-95%; (B)=0-30%) | A (key: (A)=31-95%; (B)=0-30%) | – | –
CC(C)(C)c1cc(CNC23CC4CC(CC(C4)C2)C3)[nH]n1 [Example 101a, N-((3-(tert-butyl)-1H-pyrazol-5-yl)methyl)adamantan-1-amine] | B (key: (A)=31-95%; (B)=0-30%) | B (key: (A)=31-95%; (B)=0-30%) | – | –
FC(F)(F)Sc1ccc(CNC23CC4CC(CC(C4)C2)C3)cc1 [Example 26, Adamantan-1-yl-(4-trifluoromethylsulfanyl-benzyl)-amine] | – | – | B (key: (A)=31-95%; (B)=0-30%) | A (key: (A)=31-95%; (B)=0-30%)
